{"source": "paper PMC6071225", "about": "(Viruses, 2018)", "key": {"wt NA2009": {"tested_on": "wt NA2009", "assay_type": "biochemical"}, "[1]": {"tested_on": "catalytic domain of wild-type NA2009", "assay_type": "binding", "details": "wt"}, "[2]": {"details": "50 mM MES (or ACES), pH 6.15, 25 °C"}, "[3]": {"details": "50 mM MES (or ACES), pH 6.15, 25 °C, listed as Oseltamivir"}}, "note": "Where two headings read alike, the source gives them in different places.", "data": [{"smiles": "CCC(CC)O[C@@H]1C=C(C(=O)O)C[C@H](N)[C@H]1NC(C)=O", "note": "[oseltamivir carboxylate]", "values": [{"measurement": "Fold Ki", "setting": "wt NA2009; wt NA2009, compared with that of wt NA2009", "value": 1, "unit": "fold"}, {"measurement": "Ki", "setting": "wt NA2009; wt NA2009, mean ± s.d., two independent experiments, 37 °C", "value": "24 ± 4", "unit": "nM"}, {"measurement": "Fold Kd", "setting": "[1]; compared with that of wt NA2009", "value": 1, "unit": "fold"}, {"measurement": "Kd", "setting": "[1]; [2]", "value": "140 ± 20", "unit": "nM"}, {"measurement": "ΔG", "setting": "[1]; [2]", "value": "-9.4 ± 0.1", "unit": "kcal/mol"}, {"measurement": "ΔH", "setting": "[1]; [2]", "value": "-10.8 ± 0.1", "unit": "kcal/mol"}, {"measurement": "−T·ΔS", "setting": "[1]; [2]", "value": "1.5 ± 0.2", "unit": "kcal/mol"}, {"measurement": "ΔG", "setting": "[1]; [3]", "value": -9.4, "unit": "kcal/mol"}, {"measurement": "ΔH", "setting": "[1]; [3]", "value": -10.8, "unit": "kcal/mol"}, {"measurement": "−T·ΔS", "setting": "[1]; [3]", "value": 1.5, "unit": "kcal/mol"}]}]}
